# Laboratory results taken from PMC11614538, “The proline-rich antimicrobial peptide B7-005: low bacterial resistance, safe for human cells and effective in zebrafish embryo bacteraemia model” (Open Biology, 2024).
# Residues, ends and D or L forms follow the SMILES beside them.
# Key:
# HUVECs = experiment: Cell viability MTS, HUVEC; type: cell-based, human; conditions: 24 h
# Procedure: (§1) Chronic lymphocytic leukaemia-derived MEC-1 cells were cultured in suspension using complete RPMI (EuroClone), supplemented with 100 U ml^−1 penicillin (Sigma), 100 μg ml^−1 streptomycin (Sigma), 2 mM L-glutamine and 10% (v/v) foetal bovine serum (FBS, EuroClone). A549 human lung carcinoma epithelial cells and immortalized human keratinocytes (HaCaT) were grown in adhesion in complete high glucose Dulbecco’s MEM (DMEM, EuroClone) supplemented with 100 U ml^−1 penicillin (Sigma), […] streptomycin (Sigma), 2 mM L-glutamine and 10% (v/v) of FBS. […] All cell lines were counted in a Bürker chamber and diluted to the desired working concentrations.
# (§2) Cell viability was evaluated by tetrazolium salt (MTT, or MTS for HUVECs only) tests. […] The next day, absorbance was measured at 570 nm using a Nanoquant Infinite-M200Pro plate reader (Tecan, Switzerland).
# (§3) HUVECs, 7500 cells per well, were seeded in HESFM with 10% FBS in a 96-well flat-bottomed microtitre plate (EuroClone SpA, Italy). […] The plate was then incubated for 2 h at 37°C in a humidified 5% CO2 atmosphere, and the absorbance was measured at 490 nm, using a spectrophotometer (PowerWaveX, Bio-Tek Instruments). The cytotoxicity was calculated by comparing the absorbance of peptide-treated samples with that of the untreated control and expressed in percentage of vitality. […]
# [1] = ref [20]; cited from earlier work
# Source text: The bioavailability in human serum of a peptide intended for clinical systemic use is a critical parameter for the success of peptide-based drugs. […] However, irreversible sequestration of the peptide by serum proteins at higher serum concentrations could also impair its antimicrobial activity. To check if the peptide maintained its availability under conditions closer to the clinical o ...
# HaCaT cells = experiment: Cell viability MTT, HaCaT; type: cell-based, human; conditions: 24 h, DMEM, n ≥ 9
# Procedure: as §1, §2, §3
# a human cell line = conditions: ref [20]; cited from earlier work
# Source text: In a previous work, we systematically modified Bac7(1-16), an active N-terminal fragment of the natural PrAMP full-length Bac7 [19], to identify the amino acid residues essential for inhibiting protein synthesis, with the goal to discover new derivatives with improved antimicrobial activity. […] B7-005 ...
# zebrafish embryos = experiment: In vivo toxicity in zebrafish embryos; conditions: for mortality of larvae: within 72 h, groups of 30, at least three independent experiments
# Procedure: All experimental procedures were performed in compliance with relevant laws and institutional guidelines and were performed under the Italian Ministerial Approval (code 1FF80.N.A5X). Zebrafish eggs were placed in E3 Medium (5 mM NaCl, 0.17 mM KCl, 0.33 mM CaCl2, 0.33 mM MgSO4) and incubated at 28°C. Twenty-four hours post-fertilization (hpf), the eggs were manually dechorionated. Later, embryos were placed in E3 Medium supplemented with a final concentration of 0.2 mM phenylthiourea (PTU, Sigma-Aldrich Co.) to inhibit the production of melanin. Forty-eight hpf embryos were anaesthetized using tricaine at a final concentration of 0.02% (v/v) and placed on agarose plates, to remove the excess water and to facilitate injections. Each condition for toxicity evaluation and bacteraemia model was tested on groups of 30 embryos in at least three independent experiments. Only for biodistribution assay, groups of 10 embryos were used for two independent experiments. The injections of peptide or bacteria were performed in a volume of 4.6 nl delivered in the duct of Cuvier of embryos using capillary glass and a Nanoject II Auto-Nanoliter Injector (Drummond Scientific Co., Broomall, PA, USA) and a SteREO Microscope Discovery.V8 (Zeiss, Oberkochen, Germany, UE).
# In vivo toxicity of B7-005 was evaluated by injecting 4.6 nl of sterile PBS containing increasing concentrations of the peptide (up to 64 mg kg^−1) in the duct of Cuvier of embryos. PBS only was injected in untreated control groups. The toxicity of the compound was assessed evaluating the mortality of larvae, kept in E3 medium at 28°C, within 72 h after injection.
smiles,measurement,setting,value
CC[C@H](C)[C@H](NC(=O)[C@H](CCCNC(=N)N)NC(=O)[C@@H](N)Cc1c[nH]c2ccccc12)C(=O)N[C@@H](CCCNC(=N)N)C(=O)N[C@@H](CCCNC(=N)N)C(=O)N[C@@H](CCCNC(=N)N)C(=O)N[C@@H](Cc1c[nH]c2ccccc12)C(=O)N1CCC[C@H]1C(=O)N[C@@H](CCCNC(=N)N)C(=O)N[C@@H](CC(C)C)C(=O)N1CCC[C@H]1C(=O)N[C@@H](CCCNC(=N)N)C(=O)N1CCC[C@H]1C(=O)N[C@@H](CCCNC(=N)N)C(=O)N[C@@H](Cc1c[nH]c2ccccc12)C(=O)N[C@@H](CCCNC(=N)N)C(=O)O [B7-005] (H-WRIRRRWPRLPRPRWR-OH),concentration up to which there were no detectable effects,HUVECs,≥ 128 µM
same,IC50,"HUVECs; MTS, HESFM + 10% FBS, n ≥ 9",~256 µM
same,proteolytic degradation by serum proteases,[1],excluded rapid proteolytic degradation
same,IC50,HaCaT cells,< 128 µM
same,cytotoxicity relative to Bac7(1-16),a human cell line,did not increase cytotoxicity relative to Bac7(1-16)
same,mortality of larvae,"zebrafish embryos; 24 mg kg^−1, injected in duct of Cuvier, untreated control 10%",≤ 20%
same,mortality of larvae,"zebrafish embryos; 32 mg kg^−1, injected in duct of Cuvier",~ 40%
same,lowest concentration significantly reducing viability of larvae,"zebrafish embryos; injected in duct of Cuvier, 72 h",32 mg/kg
same,highest tolerated amount,"zebrafish embryos; injected in duct of Cuvier, zebrafish embryos, 72 h",24 mg/kg
